# Assay results published in ChEMBL document CHEMBL1151543, “Application of the trimethyl lock1 to Ganciclovir, a pro-prodrug with increased oral bioavailability” (Bioorg Med Chem Lett, 1996).
# Assay: Oral bioavailability in rat
# Assay type: ADME, organism-based
# Conditions: in vivo
row,SMILES,bioavailability [%]
1,Cc1cc(C)c(C(C)(C)CC(=O)OCC(CO)OCn2cnc3c(O)nc(N)nc32)c(OCc2ccccc2)c1 (stereo not drawn),0
2,CC(=O)Oc1cc(C)cc(C)c1C(C)(C)CC(=O)OCC(CO)OCn1cnc2c(O)nc(N)nc21 (stereo not drawn),15.6
3,Nc1nc(O)c2ncn(COC(CO)CO)c2n1 [GANCICLOVIR],3.6
